According to publication PMC4955970, “Stable, synthetic analogs of diadenosine tetraphosphate inhibit rat and human P2X3 receptors and inflammatory pain” (Molecular Pain, 2016):

Tests used:
[1] = tested on: CFA-induced thermal hyperalgesia; assay: Hargreaves plantar test, CFA-induced thermal hyperalgesia; format: in vivo, rat; settings: 20 µM; for period after intraplantar injection in which antinociceptive effect was observed: inflamed hindpaw
Procedure: To induce chronic inflammatory hyperalgesia, rats were injected with complete Freund’s adjuvant (CFA, 100 μl of 50% solution) into the plantar surface of the right hindpaw 24 h prior to testing. Control animals were injected with 100 μl of pure saline. Injections of AppCH2ppA and AppNHppA (100 nM–100 μM) in 100 μl of 0.9% saline were made just before the beginning of the plantar test.
For intrathecal injection, a polyethylene-10 catheter was inserted into the rat’s subarachnoid space through a small incision at the cisterna magna, and the tip of the catheter was implanted at the L4 spinal segmental level. Animals were allowed to recover for at least four days before behavior tests. AppCH2ppA or vehicle (saline) was injected intrathecally (10 µl) and flushed with 10 µl of saline.
The Hargreaves technique[51] was used for thermal hyperalgesia studies (using the Ugo Basile Model 7370 Plantar Test). Paw withdrawal responses to noxious heat stimuli were measured in rats as described.[52] To measure response to noxious heat stimuli, each animal was placed in a Plexiglas chamber on a glass plate located above a light box. Radiant heat was applied by focused infrared (IR) beam to the middle of the plantar surface of rat hindpaw. When the animal lifted its foot, the IR beam was turned off. The time interval between the start of the IR beam and the foot lift was defined as the paw withdrawal latency. Each trial was repeated 13 times at 20-min intervals for each paw. A cut-off time of 30 s was used to prevent paw tissue damage.
Figure 10. Ap4A analogs reduced thermal hyperalgesia induced by complete Freund adjuvant (CFA) (Hargreaves plantar test). (a) Time course of the effects of subcutaneous injection of AppCH2ppA (20 µM) and AppNHppA (20 µM) on the paw withdrawal latency (PWL). […] (b) Bar graphs illustrating the effects of AppCH2ppA (20 µM) and AppNHppA (20 µM) on PWL. (c) Time course of effects of intraplantar and intrathecal administration of AppCH2ppA (20 µM) on PWL. […] (d) Bar graphs illustrating effects of intathecal and intraplantar administration of AppCH2ppA (20 µM) on the PWL (* vs. CFA, p < 0.05; *** vs. CFA, p < 0.001; ### vs. intrathecal, p < 0.001; seven rats for control, eight rats for CFA, six rats for intrathecal, and six rats for each compound for intraplantar injection were used).

[2] = target: T1, human P2X3 receptors (hP2X3Rs) (Homo sapiens, UniProt P56373); assay: Whole-cell patch clamp on HEK293 cells expressing recombinant human P2X3Rs; format: cell-based
T1 construct: transfected with rat or human full-length P2X3 cDNA subcloned into pIRES2-EGFP; expressed in transfected cells; host or cells: HEK293T (HEK293 in the results)
T1 sequence (P56373 1-397): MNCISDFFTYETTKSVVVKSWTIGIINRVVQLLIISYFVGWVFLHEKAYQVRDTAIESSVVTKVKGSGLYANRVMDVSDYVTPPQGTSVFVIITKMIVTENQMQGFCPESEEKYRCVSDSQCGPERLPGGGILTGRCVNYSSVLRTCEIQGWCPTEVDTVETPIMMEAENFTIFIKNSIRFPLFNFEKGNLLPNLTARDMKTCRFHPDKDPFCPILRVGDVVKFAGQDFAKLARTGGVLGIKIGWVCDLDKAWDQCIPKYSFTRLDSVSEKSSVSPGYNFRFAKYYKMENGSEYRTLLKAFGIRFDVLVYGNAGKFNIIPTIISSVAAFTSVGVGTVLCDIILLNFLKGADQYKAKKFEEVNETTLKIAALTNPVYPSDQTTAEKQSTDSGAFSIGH
Procedure: Rat trigeminal, nodose, or dorsal root ganglion (TG, NG, and DRG, respectivley) neurons in culture were prepared as described previously.[46],[47] Neurons were plated on poly-L-lysine (0.2 mg/ml)-coated Petri dishes and cultured for one to two days under an atmosphere containing 5% CO2. Cells were used within two days of plating when they lacked processes. HEK293T cells were prepared as reported previously[32],[48] and transfected with rat or human full-length P2X3 cDNA subcloned into pIRES2-EGFP (Clontech, Mountain View, CA, USA).
TG, NG, DRG, or HEK cells were recorded in the whole-cell configuration while being continuously superfused (at 2 ml/min) with control solution containing (in mM): 152 NaCl, 5 KCl, 1 MgCl2, 2 CaCl2, 10 glucose, and 10 HEPES; pH was adjusted to 7.4 with NaOH and osmolarity was adjusted to 320 mOsM with glucose. […] Responses to selective P2X3R agonist α,β-methylene-ATP (α,β-meATP; resistant to ectoATPase hydrolysis, Sigma-Aldrich) were measured using an EPC-9 amplifier operated by HEKA Patch Master software (HEKA Electronik, Germany). Cells were voltage-clamped at −70 mV. In most cells, series resistance was compensated by 80%. To determine EC50 values, dose-response curves were constructed for α,β-meATP by administering different agonist doses same cells and fitting data to a logistic equation (Origin 8.0, Microcal, Northampton, MA).
Agonists and antagonists were applied (usually for 2 s) via a rapid superfusion system (Rapid Solution Changer RSC-200; BioLogic Science Instruments, Grenoble, France) placed 100 to 150 µm near the cell. The time for the solution exchange across the cell was approximately 30 ms, as judged with liquid junction potential measurements. All chemicals, including enzymes for cell culture, were from Sigma-Aldrich (St. Louis, MO). […]
The peak amplitudes of the responses were measured using HEKA Patch Master software. […] All data are presented as mean ± SEM (n = the number of cells) with statistical significance assessed by paired t-test (for parametric data) or Mann-Whitney rank-sum test (for nonparametric data). […]

Nc1ncnc2c1ncn2[C@@H]1O[C@H](COP(=O)(O)OP(=O)(O)CP(=O)(O)OP(=O)(O)OC[C@H]2O[C@@H](n3cnc4c(N)ncnc43)C(O)C2O)C(O)C1O (stereo partly drawn) [AppCH2ppA, diadenosine 5′,5′′′-P^1,P^4-(β,γ-methylene)tetraphosphate]
duration of antinociceptive effect, intraplantar ([1]; intraplantar): 180 min
pain inhibition, intraplantar administration ([1]; intraplantar): 58%
time after intraplantar injection at which effect became potent ([1]; intraplantar): 20 min
period after intraplantar injection in which antinociceptive effect was observed ([1]; intraplantar): ≤ 200 min
duration of antinociceptive effect, intrathecal ([1]; intrathecal): 60 min
pain inhibition, intrathecal administration ([1]; intrathecal): 22%
time after intrathecal injection at which effects were observed ([1]; intrathecal): 120 min

Nc1ncnc2c1ncn2[C@@H]1O[C@H](COP(=O)(O)OP(=O)(O)NP(=O)(O)OP(=O)(O)OC[C@H]2O[C@@H](n3cnc4c(N)ncnc43)[C@H](O)[C@@H]2O)[C@@H](O)[C@H]1O [AppNHppA, diadenosine 5′,5′′′-P^1,P^4-(β,γ-imido)tetraphosphate]
remaining activity at 1 µM ([2]; HEK293, read-out: α,β-meATP test currents, % of control): 12 ± 4%
remaining activity at 0.1 µM ([2]; HEK293, read-out: α,β-meATP test responses, % of control): 48 ± 8%
activity at 0.01 µM ([2]; HEK293, read-out: α,β-meATP-activated currents, % of control values): 80 ± 5%
duration of antinociceptive effect, intraplantar ([1]; intraplantar): 180 min
time after intraplantar injection at which effect became potent ([1]; intraplantar): 20 min
period after intraplantar injection in which antinociceptive effect was observed ([1]; intraplantar): ≤ 200 min
